According to BigSolDB 2.1:

O=Cc1ccc(O)c(Br)c1
solubility (mole fraction)
Conditions | 278.15 K | 283.15 K | 288.15 K | 293.15 K | 298.15 K | 303.15 K | 308.15 K | 313.15 K | 318.15 K | 323.15 K
in 1,4-dioxane | – | – | 0.016 | 0.0188 | 0.022 | 0.0255 | 0.0297 | 0.0345 | 0.0402 | 0.0471
in DMF | 0.0129 | 0.0148 | 0.0171 | 0.02 | 0.0236 | 0.0275 | 0.0321 | 0.0372 | 0.0426 | 0.0488
in DMSO | – | – | – | 0.0177 | 0.0202 | 0.0235 | 0.0278 | 0.0332 | 0.0396 | 0.0467
in acetonitrile | 0.00714 | 0.00815 | 0.00947 | 0.0111 | 0.013 | 0.0152 | 0.0179 | 0.0207 | 0.0238 | 0.0273
in cyclohexane | – | 0.000283 | 0.000369 | 0.000478 | 0.000609 | 0.000766 | 0.000949 | 0.00115 | 0.00139 | 0.00167
in ethanol | 0.00755 | 0.00852 | 0.00981 | 0.0116 | 0.0137 | 0.0161 | 0.0188 | 0.0219 | 0.0254 | 0.0293
in ethyl acetate | 0.00956 | 0.011 | 0.0127 | 0.015 | 0.0176 | 0.0209 | 0.0244 | 0.0287 | 0.0332 | 0.0384
in ethylene glycol | 0.00584 | 0.00666 | 0.00772 | 0.00903 | 0.0107 | 0.0126 | 0.0149 | 0.0177 | 0.0211 | 0.0252
in isobutanol | 0.00978 | 0.0112 | 0.0131 | 0.0155 | 0.0183 | 0.0215 | 0.0251 | 0.0293 | 0.0336 | 0.0386
in isopropanol | 0.0079 | 0.00892 | 0.0104 | 0.0123 | 0.0144 | 0.0171 | 0.0201 | 0.0235 | 0.0272 | 0.0317
in methanol | 0.00568 | 0.00645 | 0.00751 | 0.00881 | 0.0103 | 0.0121 | 0.0142 | 0.0165 | 0.019 | 0.0221
in n-butanol | 0.0106 | 0.0122 | 0.0144 | 0.0168 | 0.0197 | 0.023 | 0.0269 | 0.0313 | 0.0364 | 0.0423
in n-octanol | 0.012 | 0.0138 | 0.0162 | 0.0192 | 0.0226 | 0.0267 | 0.0314 | 0.0365 | 0.0427 | 0.0498
in n-pentanol | 0.0115 | 0.0132 | 0.0153 | 0.0181 | 0.0215 | 0.0252 | 0.0295 | 0.0343 | 0.0401 | 0.0467
in n-propanol | 0.00865 | 0.01 | 0.0117 | 0.0138 | 0.0162 | 0.0191 | 0.0225 | 0.0264 | 0.0308 | 0.0361
in water | 5.93e-05 | 7.11e-05 | 9.02e-05 | 0.000116 | 0.00015 | 0.000196 | 0.00025 | 0.000314 | 0.000395 | 0.000493
